Results from patent publication US20150004134A1, “TREATMENT OF CANCER WITH HETEROCYCLIC INHIBITORS OF GLUTAMINASE” (Calithera Biosciences, Inc., priority 2012, published 2015).
Read-outs that look alike come from different tables or passages of the source.

Assays:
[1] = target: T1, recombinant form of Glutaminase 1 (GAC) (Homo sapiens, UniProt O94925); experiment: Recombinant Enzyme Assay - Time Dependence (60 min preincubation); assay type: biochemical
T1 sequence (O94925 137-598 isoform O94925-3 limits assumed): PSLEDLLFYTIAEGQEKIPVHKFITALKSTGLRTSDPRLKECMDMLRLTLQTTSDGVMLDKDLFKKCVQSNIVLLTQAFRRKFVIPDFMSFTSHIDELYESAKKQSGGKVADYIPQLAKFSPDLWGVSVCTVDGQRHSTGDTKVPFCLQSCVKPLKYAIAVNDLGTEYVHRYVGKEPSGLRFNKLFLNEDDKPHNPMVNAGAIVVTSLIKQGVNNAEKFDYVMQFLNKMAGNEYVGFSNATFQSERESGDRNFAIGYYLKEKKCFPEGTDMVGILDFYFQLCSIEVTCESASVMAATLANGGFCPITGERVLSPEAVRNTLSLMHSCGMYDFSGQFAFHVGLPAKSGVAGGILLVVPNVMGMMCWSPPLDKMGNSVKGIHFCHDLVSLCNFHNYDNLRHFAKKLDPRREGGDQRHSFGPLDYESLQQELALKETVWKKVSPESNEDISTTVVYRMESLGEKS
Method: The enzyme/compound mix was sealed with sealing foil (USA Scientific) and allowed to incubate, with mild agitation, for 60 minutes at 20° C. Enzymatic reaction was started with the addition of 50 μL of substrate solution (50 mM Tris-HCl pH 8.0, 0.2 mM EDTA, 150 mM K2HPO4, 0.1 mg/ml BSA, 1 mM DTT, 20 mM L-glutamine, 2 mM NAD^+, and 10 ppm antifoam) and read in a Molecular Devices M5 plate reader at 20° C. The plate reader was configured to read absorbance (=340 nm) in kinetic mode for 15 minutes. Data was recorded as milli-absorbance units per minute and slopes were compared to a control compound and a DMSO-only control on the same plate. Compounds with slopes less than the DMSO control were considered inhibitors and plate variability was assessed using the control compound.

P493-6 (myc "on") cells = experiment: Cell Proliferation Assay; assay type: cell-based; conditions: P493-6, 72 h, read-out: Cell prolif P493 72 h IC50, P493-6 cells, 72 h
Outline: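 P493-6 cells with myc on, 10,000 per well in RPMI/10% FBS, exposed to serially diluted compound (0.5% DMSO final) for 72 h at 37 °C, 5% CO2. Antiproliferative effect read by Cell Titer Glo luminescence or Viacount FACS viability count.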

[2] = read-out: GAC Delta N2 IC50 60 min preinc

| SMILES | IC50 [1, 2] [nM] | IC50 (P493-6 (myc "on") cells) [nM] | IC50 [1] [nM] |
| --- | --- | --- | --- |
| CCOC(=O)NCc1cccc(CC(=O)Nc2ccc(CCCCc3nnc(NC(=O)C(C)c4ccccc4)s3)nn2)c1 (centres unmarked) [Compound 555] | 4 | 10 |  |
| CCOc1cc(CC(=O)Nc2nnc(CCCCc3ccc(NC(=O)Cc4ccccc4)nn3)s2)ccc1O [Compound 556] | 5 | 120 |  |
| CC(N)c1cccc(CC(=O)Nc2nnc(CCCCc3ccc(NC(=O)Cc4ccccc4)nn3)s2)c1 (centres unmarked) [Compound 559] | 12 | 66 |  |
| COC(=O)NC(C)c1cccc(CC(=O)Nc2nnc(CCCCc3ccc(NC(=O)Cc4ccccc4)nn3)s2)c1 (centres unmarked) [Compound 561] | 4 | 4 |  |
| CCOC(=O)NC(C)c1cccc(CC(=O)Nc2nnc(CCCCc3ccc(NC(=O)Cc4ccccc4)nn3)s2)c1 (centres unmarked) [Compound 562] | 3 | 2 |  |
| CC(C)(C)C(=O)NCc1cccc(CC(=O)Nc2nnc(CCCCc3ccc(NC(=O)Cc4ccccc4)nn3)s2)c1 [Compound 564] | 4 | 2 |  |
| O=C(Cc1ccccc1Cl)Nc1ccc(CCCCc2nnc(NC(=O)Cc3ccccc3Cl)s2)nn1 [Compound 565] | 5 | 13 |  |
| COC(=O)NCc1cccc(CC(=O)Nc2ccc(CCCCc3nnc(NC(=O)Cc4cccc(CNC(=O)OC)c4)s3)nn2)c1 [Compound 573] | 4 | 15 |  |
| CCC(O)C(=O)NCc1cccc(CC(=O)Nc2nnc(CCCCc3ccc(NC(=O)Cc4ccccc4)nn3)s2)c1 (centres unmarked) [Compound 575] | 7 | 40 |  |
| CC(C(=O)NCc1cccc(CC(=O)Nc2nnc(CCCCc3ccc(NC(=O)Cc4ccccc4)nn3)s2)c1)c1ccc(O)cc1 (centres unmarked) [Compound 576] | 3 | 13 |  |
| O=C(Cc1ccccc1)Nc1ccc(CCCCc2nnc(NC(=O)Cc3cccc(CNC(=O)C(O)C(F)(F)F)c3)s2)nn1 (centres unmarked) [Compound 577] | 4 | 34 |  |
| O=C(CC(O)C(F)(F)F)NCc1cccc(CC(=O)Nc2nnc(CCCCc3ccc(NC(=O)Cc4ccccc4)nn3)s2)c1 (centres unmarked) [Compound 578] | 4 | 22 |  |
| CC(O)(CC(=O)NCc1cccc(CC(=O)Nc2nnc(CCCCc3ccc(NC(=O)Cc4ccccc4)nn3)s2)c1)C(F)(F)F (centres unmarked) [Compound 579] | 4 | 9 |  |
| CC1(C)OCC(C)(C(=O)NCc2cccc(CC(=O)Nc3nnc(CCCCc4ccc(NC(=O)Cc5ccccc5)nn4)s3)c2)CO1 [Compound 580] | 5 | 13 |  |
| CC(CO)(CO)C(=O)NCc1cccc(CC(=O)Nc2nnc(CCCCc3ccc(NC(=O)Cc4ccccc4)nn3)s2)c1 [Compound 581] | 11 | 240 |  |
| CS(=O)(=O)CCCOc1cccc(CC(=O)Nc2nnc(CCCCc3ccc(NC(=O)Cc4ccccc4)nn3)s2)c1 [Compound 583] | 5 | 42 |  |
| CC(C(=O)Nc1nnc(CCCCc2ccc(NC(=O)Cc3ccccc3)nn2)s1)c1cccc(C(=O)c2ccccc2)c1 (centres unmarked) [Compound 587] | 7 | 57 |  |
| CCOC(=O)c1ccc(CC(=O)Nc2nnc(CCCCc3ccc(NC(=O)Cc4ccccc4)nn3)s2)cc1OCC [Compound 588] | 8 | 270 |  |
| CC(=O)NC(C)c1cccc(CC(=O)Nc2ccc(CCCCc3nnc(NC(=O)Cc4ccccc4)s3)nn2)c1 (centres unmarked) [Compound 590] | 7 | 87 |  |
| CCNC(=O)OC(C)c1cccc(CC(=O)Nc2nnc(CCCCc3ccc(NC(=O)Cc4ccccc4)nn3)s2)c1 (centres unmarked) [Compound 592] | 4 | 11 |  |
| CC(O)c1cccc(CC(=O)Nc2nnc(CCCCc3ccc(NC(=O)Cc4ccccc4)nn3)s2)c1 (centres unmarked) [Compound 593] | 5 | 33 |  |
| CCNC(=O)OC(C)c1cccc(CC(=O)Nc2ccc(CCCCc3nnc(NC(=O)C(C)c4ccccc4)s3)nn2)c1 (centres unmarked) [Compound 594] | 7 | 50 |  |
| CC(O)c1cccc(CC(=O)Nc2ccc(CCCCc3nnc(NC(=O)C(C)c4ccccc4)s3)nn2)c1 (centres unmarked) [Compound 595] | 7 | 59 |  |
| CCNC(=O)OC(C)c1cccc(CC(=O)Nc2ccc(CCCCc3nnc(NC(=O)Cc4cccc(OC(F)(F)F)c4)s3)nn2)c1 (centres unmarked) [Compound 596] | 15 | 330 |  |
| CC(O)c1cccc(CC(=O)Nc2ccc(CCCCc3nnc(NC(=O)Cc4cccc(OC(F)(F)F)c4)s3)nn2)c1 (centres unmarked) [Compound 597] | 5 | 17 |  |

| SMILES | IC50 [1, 2] [nM] | IC50 (P493-6 (myc "on") cells) [nM] | IC50 [1] [nM] |
| --- | --- | --- | --- |
| COC(=O)NC(C)c1cccc(CC(=O)Nc2ccc(CCCCc3nnc(NC(=O)C(C)c4ccccc4)s3)nn2)c1 (centres unmarked) [Compound 601] | 6 | 36 |  |
| CCOC(=O)NC(C)c1cccc(CC(=O)Nc2ccc(CCCCc3nnc(NC(=O)C(C)c4ccccc4)s3)nn2)c1 (centres unmarked) [Compound 602] | 6 | 36 |  |
| CC(C)(C)OC(=O)N1Cc2cccc(CC(=O)Nc3nnc(CCCCc4ccc(NC(=O)Cc5ccccc5)nn4)s3)c2C1 [Compound 608] | 7 | 37 |  |
| CCOC(=O)NCc1cccc(CC(=O)Nc2ccc(CCCCc3nnc(NC(=O)C(OC)c4ccccc4)s3)nn2)c1 (centres unmarked) [Compound 609] | 9 | 14 |  |
| CC(C)(C)OC(=O)N1Cc2cccc(CC(=O)Nc3ccc(CCCCc4nnc(NC(=O)Cc5cccc(OC(F)(F)F)c5)s4)nn3)c2C1 [Compound 612] | 65 | 100 |  |
| COc1cccc(CC(=O)Nc2ccc(CCCCc3nnc(NC(=O)Cc4cccc(OC(F)(F)F)c4)s3)nn2)c1 [Compound 617] | 5 | 40 |  |
| O=C(Cc1cccc(Cl)c1)Nc1ccc(CCCCc2nnc(NC(=O)Cc3cccc(OC(F)(F)F)c3)s2)nn1 [Compound 618] | 8 | 35 |  |
| CC(N)c1cccc(CC(=O)Nc2ccc(CCCCc3nnc(NC(=O)C(C)c4ccccc4)s3)nn2)c1 (centres unmarked) [Compound 619] |  | 150 | 13 |
| CC(C)C(=O)NC(C)c1cccc(CC(=O)Nc2ccc(CCCCc3nnc(NC(=O)Cc4ccccc4)s3)nn2)c1 (centres unmarked) [Compound 620] | 5 | 11 |  |
| CCC(=O)NC(C)c1cccc(CC(=O)Nc2ccc(CCCCc3nnc(NC(=O)Cc4ccccc4)s3)nn2)c1 (centres unmarked) [Compound 621] |  | 20 | 5 |
| CC(NC(=O)C(F)(F)F)c1cccc(CC(=O)Nc2ccc(CCCCc3nnc(NC(=O)Cc4ccccc4)s3)nn2)c1 (centres unmarked) [Compound 622] | 4 | 10 |  |
| CC(NC(=O)CC(F)(F)F)c1cccc(CC(=O)Nc2ccc(CCCCc3nnc(NC(=O)Cc4ccccc4)s3)nn2)c1 (centres unmarked) [Compound 624] |  | 9 | 4 |
| CC(C)CC(=O)NC(C)c1cccc(CC(=O)Nc2ccc(CCCCc3nnc(NC(=O)Cc4ccccc4)s3)nn2)c1 (centres unmarked) [Compound 625] |  | 6 | 4 |
| CC(NS(C)(=O)=O)c1cccc(CC(=O)Nc2ccc(CCCCc3nnc(NC(=O)Cc4ccccc4)s3)nn2)c1 (centres unmarked) [Compound 626] |  | 17 | 4 |
| CC(C)(C)OC(=O)NC(C)(C)c1cccc(CC(=O)Nc2nnc(CCCCc3ccc(NC(=O)Cc4ccccc4)nn3)s2)c1 [Compound 630] | 4 | 9 |  |
| CC(C)(C)OC(=O)NC(C)(C)c1cccc(CC(=O)Nc2ccc(CCCCc3nnc(NC(=O)Cc4ccccc4)s3)nn2)c1 [Compound 631] | 5 | 6 |  |
| CC(C)(N)c1cccc(CC(=O)Nc2nnc(CCCCc3ccc(NC(=O)Cc4ccccc4)nn3)s2)c1 [Compound 632] |  | 200 | 10 |
| CC(C)(N)c1cccc(CC(=O)Nc2ccc(CCCCc3nnc(NC(=O)Cc4ccccc4)s3)nn2)c1 [Compound 633] | 7 | 130 |  |
| CS(=O)(=O)Cc1cccc(CC(=O)Nc2ccc(CCCCc3nnc(NC(=O)Cc4ccccc4)s3)nn2)c1 [Compound 635] | 5 | 30 |  |
| CCCCS(=O)(=O)Cc1cccc(CC(=O)Nc2nnc(CCCCc3ccc(NC(=O)Cc4ccccc4)nn3)s2)c1 [Compound 644] |  | 13 | 3 |
| CCCCS(=O)(=O)Cc1cccc(CC(=O)Nc2ccc(CCCCc3nnc(NC(=O)Cc4ccccc4)s3)nn2)c1 [Compound 645] | 2 | 15 |  |
| CCN(CC)C(=O)COc1cccc(CC(=O)Nc2ccc(CCCCc3nnc(NC(=O)Cc4ccccc4)s3)nn2)c1 [Compound 646] | 7 | 37 |  |
| CC(C)CNC(=O)COc1cccc(CC(=O)Nc2ccc(CCCCc3nnc(NC(=O)Cc4ccccc4)s3)nn2)c1 [Compound 647] | 4 | 18 |  |
| O=C(Cc1cccc2c1CNC2)Nc1ccc(CCCCc2nnc(NC(=O)Cc3cccc(OC(F)(F)F)c3)s2)nn1 [Compound 649] | 4 | 34 |  |
